The values below are quoted from earlier work in patent US20190383817A1, “PREDICTING RESPONSE TO IMMUNOMODULATORY DRUGS (IMIDS) IN MULTIPLE MYELOMA PATIENTS” (SKYLINEDX B.V., priority 2016, published 2019).

Data set [1] relates to IKAROS transcription factors. As to conditions: compared with thalidomide.
The next data set relates to CRBN. The following applies: comparison among thalidomide, lenalidomide, pomalidomide.
The subject of a further data set is MM patients. As to conditions: compared against non-Bortezomib containing regimes such as VAD.

For `Cc1cccc2c1C(=O)N(C1CCC(=O)NC1=O)C2=O` (stereo not drawn) [2-(2,6-dioxopiperidin-3-yl)-4-methylisoindoline-1,3-dione], the “efficiency at targeting IKAROS transcription factors for degradation by CRBN” value in data set [1] is given as “more efficient”. Take `O=C1CCC(N2C(=O)c3ccccc3C2=O)C(=O)N1` (stereo not drawn) [thalidomide, 2-(2,6-dioxopiperidin-3-yl)-1H-isoindole-1,3(2H)-dione]: the “binding to CRBN” value with CRBN is listed as “bind similarly to CRBN”. Regarding `CC(C)C[C@H](NC(=O)[C@H](Cc1ccccc1)NC(=O)c1cnccn1)B(O)O` [Bortezomib], in the data set with MM patients, the “Overall Survival (OS)” value is on record as “significantly prolonged” and the “Progression Free Survival (PFS)” value is listed as “significantly prolonged”. On to `Nc1cccc2c1C(=O)N(C1CCC(=O)NC1=O)C2=O` (stereo not drawn) [pomalidomide, 4-Amino-2-(2,6-dioxopiperidin-3-yl)isoindole-1,3-dione], for which the “binding to CRBN” value with CRBN was “bind similarly to CRBN”. In data set [1], the “efficiency at targeting IKAROS transcription factors for degradation by CRBN” value is on record as “more efficient”.
